Source: US20200354411A1, “Chimeric Molecule for Targeting c-Myc in Cells” (priority 2017, published 2020)
“Also recorded” adds a separate entry of the source. Like-named read-outs stand apart in the source and are kept apart here.

Tests used:
c-Myc = experiment: E-Box luciferase reporter, c-Myc transcriptional activity in A431 cells; type: cell-based; conditions: for EC50: A431 cells expressing luciferase upon E-Box promoter
Excerpt: (§1) All cell lines come from ATCC. Lentiviruses were generated according to the manufacturer's instructions (Invitrogen). WT A431 cells were transduced with Cignal Lenti Myc Reporter (Qiagen) expressing Luciferase upon E-Box promoter and CMV-Renilla Control CLS-RCL expressing Renilla upon CMV promoter. Single clone was selected after colony isolation and Luciferase/Renilla expression level tested. All cell lines (A431 and HepG2) were maintained in high-glucose Dulbecco's modified Eagle's medium supplemented with 10% foetal calf serum at 37° C. in a 10% CO2 incubator. All experiments were performed on cells passaged fewer than 10 times after thawing.
40,000 A431-Ebox-luc-CMV-Ren cells were seeded in a 96-well plate (Falcon) 48 hours. Luminescence is detected using the Promega Dual-Glo luciferase assay system, according to the manufacturer's protocol and read using Tecan Infinite M200 microplate reader using 100 ms integration time. […]

[1] = test system: Renilla upon CMV promoter; experiment: CMV-Renilla control reporter in A431 cells; type: cell-based; conditions: 50 nM, 6 hours
Excerpt: as §1
40,000 A431-Ebox-luc-CMV-Ren cells were seeded in a 96-well plate (Falcon) 48 hours. Luminescence is detected using the Promega Dual-Glo luciferase assay system, according to the manufacturer's protocol and read using Tecan Infinite M200 microplate reader using 100 ms integration time.

A431 cells [2] = experiment: Cell fractionation, subcellular location; type: cell-based; conditions: for subcellular location after cell fractionation: 200 nM, 1 hour, A431; for time to reach the nucleus: after incubation
Protocol: Cells were seeded at the desired densities in six-well dishes (Thermo Fisher Scientific) and incubated at 37° C., 10% CO2 for 16 hours. Cells were treated for 1 hour with mock (untreated cells) or tPE-H1 200 nM before fractionation with Cell Surface Protein Isolation Kit (#89881, Thermo Fisher Scientific) according to the manufacturer's protocol. In addition, cytosolic fraction is centrifuge at 15 000 g for 15 minutes to remove membrane contaminants. Samples are denaturated in Laemmli blue 2X and heat-denaturated for 5 minutes at 95° C. Samples are loaded on SDS-PAGE followed by western blot.
(§2) It is of note that the experiments outlined above were also performed using the tPE-Omomcy fusion protein, results of which are shown in FIG. 2B, and FIGS. 12 to 15. The concentration of the tPE-Omomyc fusion protein is as stated on the x-axis in FIGS. 12 and 14; 200 nM for FIG. 2B; and 10 nM for FIGS. 13 and 15.

c-Myc/Max complex = target: T1, c-Myc/Max complex (Homo sapiens, UniProt P01106); experiment: c-Myc co-immunoprecipitation with Max; type: cell-based; conditions: 200 nM, 1 hour, A431
T1 construct: endogenous in cells; host or cells: A431
T1 sequence (P01106 whole entry, one chain of several): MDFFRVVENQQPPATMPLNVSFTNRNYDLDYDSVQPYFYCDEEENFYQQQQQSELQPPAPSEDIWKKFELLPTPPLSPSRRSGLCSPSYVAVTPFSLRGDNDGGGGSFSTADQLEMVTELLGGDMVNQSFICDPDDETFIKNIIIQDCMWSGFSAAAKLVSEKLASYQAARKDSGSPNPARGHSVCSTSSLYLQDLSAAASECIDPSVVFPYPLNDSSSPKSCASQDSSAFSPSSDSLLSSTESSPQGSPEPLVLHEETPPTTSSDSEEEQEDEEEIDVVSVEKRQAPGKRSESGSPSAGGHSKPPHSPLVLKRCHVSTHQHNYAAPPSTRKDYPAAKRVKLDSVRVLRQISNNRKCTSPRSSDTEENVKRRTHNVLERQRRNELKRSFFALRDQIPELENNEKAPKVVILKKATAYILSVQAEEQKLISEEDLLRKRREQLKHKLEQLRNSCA
Protocol: A431 cells seeded at the desired densities in six-well dishes (Thermo Fisher Scientific) and incubated at 37° C., 10% CO2 for 16 hours. Cells were treated for 1 hour with mock, tPE or tPE-H1 200 nM before lysis in RIPA buffer for 20 minutes at 4° C. and centrifugation for 20 minutes at 15 000 g at 4° C. Soluble fractions were added with c-myc antibody (#32, Abcam) on orbital wheel for 4 hours at 4° C. Protein A Sepharose (GE Healthcare) was added and incubated overnight on orbital wheel at 4° C. After three washes, proteins were eluted in one volume of Laemmli blue 2X and heat-denaturated for 5 minutes at 95° C. Samples were run on SDS-PAGE before western blot. Membrane are blocked in milk and incubated with anti Max (#199489, Abcam) and anti c-Myc (#32072, Abcam).

A431 cells [3] = experiment: A431 cell proliferation (IncuCyte live imaging); type: cell-based
Protocol: (§3) Cells were seeded at 10 to 20% confluency. 24 hours later, the cells were incubated with different doses of tPE-H1 at 37° C., 10% CO2 for 14 days. Live imaging was performed using IncuCyte ZOOM® Live-Cell Analysis System. Bright field Images were taken every 6 hours. Images were analysed using IncuCyte ZOOM® Live-Cell Analysis software.

[4] = test system: Hepatocarcinoma HepG2 cells; experiment: HepG2 cell proliferation (IncuCyte live imaging); type: cell-based; conditions: for concentration above which no proliferation / absence of cell growth: HepG2, 2 weeks
Protocol: as §3, §2

[5] = test system: Hepatocarcinoma HepG2 cells; experiment: DRAQ7 cell mortality assay; type: cell-based; conditions: 24 hours
Protocol: 25000 HepG2 cells were seeded per well in a 96-well plate. After incubation at 37° C. for 24 hours, DRAQ7 dye was prepared with 100 nM tPE-H1 at 500 times dilution
Cell mortality was tracked by acquiring nine fields of brightfield and far-red images at 20× magnification every 4 hours using the Operetta machine (Perkin-Elmer) for 3 to 5 days. The machine kept the plate incubated at 37° C. with 8% CO2.
as §2

c-Myc regulated genes = experiment: RT-PCRQ of c-Myc regulated transcripts; type: cell-based, human; conditions: A431, 100 nM overnight (16 hours)
Protocol: 400000 A431 cells were seeded in each well in a 6 well plate (Falcon) 24 hours before incubation with 100 nM tPE-H1 for 16 hours at 37° C. Total RNA was isolated using the RNeasy Mini Kit (Qiagen, Ref. no 74106) as described by manufacturer's protocol.
10 μg total RNA was reversed transcribed using SuperScript III First-Strand Synthesis System for RT-PCR (Invitrogen, Cat. no. 18080051) as described by manufacturer's protocol.
The relative expression of mRNAs of c-Myc regulated genes identified in RT^2 Profiler™ PCR Array Human MYC Targets (Qiagen, Cat. no. PAHS-177Z) was determined by real-time quantitative RT-PCR. Briefly, a PCR component mix containing cDNA, RT^2 SYBR Green Mastermix (Qiagen, Cat. no. 330523) and RNase-free water is prepared. 25 μl of the PCR reaction was added to each well in one array plate and subjected to a qPCR program using the ABI 7500. PCR cycling conditions comprised of an initial denaturation step at 95° C. for 10 minutes followed by an amplification program for 40 cycles of 15 seconds at 95° C., and 60 seconds at 60° C. with fluorescence acquisition at the end of each extension. The relative expression of each gene between treated and untreated samples is calculated using the comparative ΔΔCT method, using the mock treated sample as calibrator and housekeeping gene HPRT as internal control.

[6] = test system: HeLa, A431, MG63, MDA-MD231, and HCT116; experiment: Sensitivity of other cell lines (data not shown); type: cell-based
[7] = 6 hours, read-out: EC50 on c-Myc transcriptional activity (c-Myc-dependent luciferase activity)
[8] = tPE-H1 50 nM, A431 E-Box luciferase
[9] = tPE-Omomyc 10 nM, A431 E-Box luciferase
[10] = 6 hours, read-out: EC50 on c-Myc transcriptional activity, CPP fused to H1

## cell targeting peptide Antenapedia fused to H1: RQIKIWFQNRRMKWKK NELKRAFAALRDQI [Int-H1, reference compound]
c-Myc; 6 hours, listed as Antenapedia, read-out: EC50 on c-Myc transcriptional activity, CPP fused to H1
  EC50: 200 µM
c-Myc; 6 hours, listed as int-H1, read-out: EC50 on c-Myc transcriptional activity, CPP fused to H1
  EC50: ~200 µM

## tPE-H1: fusion protein: PE domains Ia and II genetically fused to mutated H1 peptide (S6A, F8A), SEQ ID NO: 14
c-Myc
  more efficient than H1 fused to cell penetrating peptides (TAT, CAD, int): at least 1000 times
c-Myc; 50 nM
  decrease in Myc reporter activity: > 90%
c-Myc; 50 nM, 6 hours, A431
  effect on E-Box luciferase: decrease of the luciferase
c-Myc; [7]
  EC50: 0.025 µM
c-Myc; [8]
  time of peak activity / maximal inhibition of luciferase: 8 h
  time over which maximal inhibition was stable: more than 24 hours
[1]
  effect on Renilla luciferase (CMV promoter control): not affected
A431 cells [2]
  subcellular location after cell fractionation: location in the nucleus
  time to reach the nucleus: less than 1 hour
c-Myc/Max complex
  effect on c-Myc/Max interaction (co-IP of Max with c-Myc): disrupted the c-Myc/Max interaction
A431 cells [3]; A431, 50 nM and 100 nM, over 2 weeks
  cell proliferation: slower cell proliferation
A431 cells [3]; A431, 50 to 400 nM
  cell proliferation, dose response: dose dependent decrease in cell proliferation
A431 cells [3]; A431, over 2 weeks
  concentration above which no proliferation / total absence of growth: above 200 nM
[4]
  concentration sufficient to block HepG2 cell proliferation and induce cell death/apoptosis: 100 nM
  concentration above which no proliferation / absence of cell growth: above 50 nM
[4]; HepG2, 10 nM and 25 nM, over 2 weeks
  cell proliferation: slower cell proliferation
[5]; HepG2, 100 nM
  number of dead (DRAQ7 positive) cells: cells death; also recorded: increase of the number of dead cells
c-Myc regulated genes
  mRNA amount of transcripts regulated by c-Myc: decrease of numerous upregulated genes under tPE-H1 treatment and an increase of numerous down regulated genes
[6]; all the cell lines tested
  relative sensitivity of all cell lines tested, tPE-H1 versus tPE-Omomyc: around 10 times

## tPE-Omomyc: fusion protein: PE domains Ia and II genetically fused to Omomyc peptide, SEQ ID NO: 15
c-Myc; [7]
  EC50: 0.005 µM
c-Myc; [9]
  time of peak activity / maximal inhibition of luciferase: 16 h
  time over which maximal inhibition is stable: more than 24 hours
A431 cells [2]
  subcellular location after cell fractionation: located in nuclear fraction; also recorded: in the nuclear fraction
  time to reach the nucleus: ≤ 1 h
[4]
  concentration sufficient to block HepG2 cell proliferation and induce cell death/apoptosis: 10 nM
  concentration above which no proliferation / absence of cell growth: above 10 nM
[4]; HepG2, 2.5 nM and 5 nM, 2 weeks
  cell proliferation: slower cell proliferation
[4]; HepG2, 1 to 10 nM
  cell proliferation, different doses: decrease in cell proliferation
[5]; HepG2, 10 nM
  number of dead (DRAQ7 positive) cells: significant increase; also recorded: increase of the number of dead cells
[6]; HeLa, A431, MG63, MDA-MD231, HCT116, data not shown
  concentration to which cell lines were sensitive: about 10 nM

## cell targeting peptide Cadherin fused to H1: LLIILLRRRIRKQAHAHSK NELKRAFAALRDQI [CAD-H1, reference compound]
c-Myc; 6 hours, listed as Cadherin, read-out: EC50 on c-Myc transcriptional activity, CPP fused to H1
  EC50: 75 µM
c-Myc; [10]
  EC50: ~75 µM

## cell targeting peptide TAT fused to H1: GRKKRRQRRRPPQ NELKRAFAALRDQI [Tat-H1, reference compound]
c-Myc; 6 hours, listed as TAT, read-out: EC50 on c-Myc transcriptional activity, CPP fused to H1
  EC50: 500 µM
c-Myc; [10]
  EC50: ~500 µM
